From ChEMBL document CHEMBL5620387, “Discovery of 4'-trifluoromethylchalcones as novel, potent and selective hCYP1B1 inhibitors without concomitant AhR activation” (Eur J Med Chem, 2023)
pIC50: −log10 of the molar value.

Key:
[1] = target: T1, Cytochrome P450 1A2 (Homo sapiens, UniProt P05177); test: Inhibition of human recombinant CYP1A2 assessed as fluorescence of resorufin; assay type: ADME
T1 sequence (P05177 whole entry): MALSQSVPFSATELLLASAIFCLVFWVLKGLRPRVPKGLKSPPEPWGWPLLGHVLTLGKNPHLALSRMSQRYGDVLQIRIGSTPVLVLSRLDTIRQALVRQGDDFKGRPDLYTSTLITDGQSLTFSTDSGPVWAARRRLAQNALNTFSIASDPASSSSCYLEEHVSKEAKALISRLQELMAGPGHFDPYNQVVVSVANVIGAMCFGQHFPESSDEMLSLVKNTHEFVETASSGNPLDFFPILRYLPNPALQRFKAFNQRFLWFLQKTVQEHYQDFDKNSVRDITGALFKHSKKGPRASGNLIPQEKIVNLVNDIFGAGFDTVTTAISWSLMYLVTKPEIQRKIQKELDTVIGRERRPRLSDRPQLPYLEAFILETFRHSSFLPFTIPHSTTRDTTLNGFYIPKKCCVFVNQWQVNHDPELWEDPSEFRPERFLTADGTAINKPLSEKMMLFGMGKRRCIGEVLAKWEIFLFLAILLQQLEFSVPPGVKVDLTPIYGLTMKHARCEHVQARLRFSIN

[2] = target: T2, Aryl hydrocarbon receptor (Homo sapiens, UniProt P35869); test: Agonist activity at aryl hydrocarbon receptor (unknown origin) expressed in HEK293T cells assessed as luciferase activity at 10 uM measured after 24 hrs; assay type: toxicity, cell-based
T2 sequence (P35869 whole entry): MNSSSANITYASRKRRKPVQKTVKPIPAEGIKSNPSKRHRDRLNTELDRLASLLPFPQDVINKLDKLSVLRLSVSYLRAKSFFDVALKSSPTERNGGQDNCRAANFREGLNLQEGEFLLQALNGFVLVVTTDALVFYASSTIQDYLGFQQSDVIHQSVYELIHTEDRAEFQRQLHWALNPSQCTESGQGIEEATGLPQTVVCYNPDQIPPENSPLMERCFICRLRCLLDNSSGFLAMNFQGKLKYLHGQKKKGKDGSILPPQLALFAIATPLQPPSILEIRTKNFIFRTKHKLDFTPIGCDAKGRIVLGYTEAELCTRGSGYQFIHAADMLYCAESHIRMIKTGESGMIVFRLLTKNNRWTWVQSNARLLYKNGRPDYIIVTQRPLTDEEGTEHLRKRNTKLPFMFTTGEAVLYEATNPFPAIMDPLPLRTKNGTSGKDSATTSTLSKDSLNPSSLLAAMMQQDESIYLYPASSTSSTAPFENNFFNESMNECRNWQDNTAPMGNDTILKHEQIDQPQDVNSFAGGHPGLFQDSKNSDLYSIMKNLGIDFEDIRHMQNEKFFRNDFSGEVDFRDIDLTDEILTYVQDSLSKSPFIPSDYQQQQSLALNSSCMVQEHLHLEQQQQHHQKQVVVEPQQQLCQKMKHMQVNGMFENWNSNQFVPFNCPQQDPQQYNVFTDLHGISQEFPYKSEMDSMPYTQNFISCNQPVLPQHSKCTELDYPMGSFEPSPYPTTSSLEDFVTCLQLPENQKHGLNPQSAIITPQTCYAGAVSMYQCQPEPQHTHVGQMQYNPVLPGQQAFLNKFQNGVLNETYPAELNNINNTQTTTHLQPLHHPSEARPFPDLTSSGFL

[3] = Metabolic stability in human liver microsomes assessed as half life measured after 60 mins by LC-UV analysis; assay type: ADME, Microsome
[4] = Metabolic stability in human liver microsomes assessed as relative remaining concentration measured after 60 mins by LC-UV analysis; assay type: ADME, Microsome; conditions: read-out: INH
[5] = target: T3, Cytochrome P450 1B1 (Homo sapiens, UniProt Q16678); test: Inhibition of human recombinant CYP1B1 assessed as fluorescence of resorufin
T3 sequence (Q16678 whole entry): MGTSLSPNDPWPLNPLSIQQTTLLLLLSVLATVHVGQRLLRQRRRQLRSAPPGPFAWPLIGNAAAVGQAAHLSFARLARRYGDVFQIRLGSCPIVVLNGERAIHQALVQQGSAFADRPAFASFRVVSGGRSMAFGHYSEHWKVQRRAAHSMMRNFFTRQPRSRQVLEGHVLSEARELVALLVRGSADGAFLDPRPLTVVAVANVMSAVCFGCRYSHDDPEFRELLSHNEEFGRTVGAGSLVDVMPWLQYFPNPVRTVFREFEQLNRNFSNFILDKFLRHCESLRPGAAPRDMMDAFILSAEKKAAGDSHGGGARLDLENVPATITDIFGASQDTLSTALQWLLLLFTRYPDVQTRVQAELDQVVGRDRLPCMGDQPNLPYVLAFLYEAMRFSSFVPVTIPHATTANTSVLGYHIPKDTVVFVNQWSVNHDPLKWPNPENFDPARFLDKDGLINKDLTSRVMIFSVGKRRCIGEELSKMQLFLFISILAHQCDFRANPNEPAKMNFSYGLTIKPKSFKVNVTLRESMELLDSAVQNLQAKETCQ

[6] = target: T4, Cytochrome P450 1A1 (Homo sapiens, UniProt P04798); test: Inhibition of human recombinant CYP1A1 assessed as fluorescence of resorufin; assay type: ADME
T4 sequence (P04798 whole entry): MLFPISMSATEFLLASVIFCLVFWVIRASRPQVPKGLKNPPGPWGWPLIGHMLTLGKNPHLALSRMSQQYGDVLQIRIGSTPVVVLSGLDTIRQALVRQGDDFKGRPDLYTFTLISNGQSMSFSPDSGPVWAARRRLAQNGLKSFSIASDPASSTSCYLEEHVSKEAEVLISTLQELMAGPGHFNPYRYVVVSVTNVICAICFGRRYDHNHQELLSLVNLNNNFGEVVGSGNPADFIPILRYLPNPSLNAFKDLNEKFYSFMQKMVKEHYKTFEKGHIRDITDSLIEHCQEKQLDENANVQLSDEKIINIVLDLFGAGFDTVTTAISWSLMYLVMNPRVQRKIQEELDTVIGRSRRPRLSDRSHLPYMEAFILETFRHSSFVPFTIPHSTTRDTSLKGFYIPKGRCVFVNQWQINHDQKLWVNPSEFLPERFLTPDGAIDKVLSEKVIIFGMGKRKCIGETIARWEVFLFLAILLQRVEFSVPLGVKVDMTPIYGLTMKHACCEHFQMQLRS

[7] = target: T3, Cytochrome P450 1B1; test: Inhibition of human CYP1B1 overexpressed in CHO cells assessed as intracellular protein inhibition measured at 10 to 100 uM after 3 hrs; assay type: cell-based; conditions: dose 10-100 µM
[8] = target: T2, Aryl hydrocarbon receptor; test: Antagonist activity at aryl hydrocarbon receptor (unknown origin) expressed in HEK293T cells assessed as luciferase activity at 10 uM measured after 24 hrs; assay type: toxicity, cell-based

For `COc1cc(O)c(Cl)cc1/C=C/C(=O)c1ccc(C(F)(F)F)cc1`, the pIC50 [1] was less than 4.00 and the Activity [2] was “Active”.
With `COc1cc(O)ccc1/C=C/C(=O)c1ccc(C(F)(F)F)cc1` the pIC50 [1] was less than 4.00, the half-life [3] was 35.6 min and the remaining at 1 h [4] was 21%. The Activity [2] was “Active”.
`O=C(/C=C/c1ccccc1)c1ccc([N+](=O)[O-])cc1` gave a pIC50 [5] of 6.55.
`COc1ccc(/C=C/C(=O)c2ccc(C(F)(F)F)cc2)cc1` gave a pIC50 [1] of less than 4.00.
In the case of `O=c1cc(-c2ccccc2)oc2c1ccc1ccccc12` [ALPHA-NAPHTHOFLAVONE], the pIC50 [6] was 8.13 and the “inhibition (INH)” value [7] was “Dose-Dependent Effect”.
For `COc1cc(OC(C)=O)ccc1/C=C/C(=O)c1ccc(C(F)(F)F)cc1`, the pIC50 [1] was less than 4.00.
In the case of `Cc1ccc(/C=C/C(=O)c2ccc(C(F)(F)F)cc2)c(C)c1`, the pIC50 [1] was less than 4.00.
Molecule `O=C(/C=C/c1ccccc1)c1ccccc1` [CHALCONE] has a pIC50 [5] of 6.52.
With `CCOc1ccc(/C=C/C(=O)c2ccc(C(F)(F)F)cc2)c(OC)c1` the pIC50 [1] was less than 4.00 and the Activity [2] was “Active”.
With `COc1ccc(/C=C/C(=O)c2ccc(C(F)(F)F)cc2)c(OC)c1` the pIC50 [5] was 8.33, the Activity [8] was “Active” and the pIC50 [6] was 5.77. The pIC50 [1] was less than 4.00, the half-life [3] was 28.9 min and the remaining at 1 h [4] was 11.8%.
With `COc1cc(O)c(Br)cc1/C=C/C(=O)c1ccc(C(F)(F)F)cc1` the pIC50 [1] was less than 4.00.
`C[C@]12CC[C@H]3[C@@H](CCC4=CC(=O)CC[C@@]43C)[C@@H]1CC[C@@H]2O` [TESTOSTERONE] gave a half-life [3] of 58.2 min and a remaining at 1 h [4] of 43.7%.
`O=C(/C=C/c1ccccc1)c1ccc(O)cc1` [4'-HYDROXYCHALCONE] showed a pIC50 [5] of 5.95.
`O=C(/C=C/c1ccccc1)c1ccc(Cl)cc1` gave a pIC50 [5] of 7.37.
`O=C(/C=C/c1ccc(F)cc1F)c1ccc(C(F)(F)F)cc1` gave a pIC50 [1] of less than 4.00.
